From patent publication US12679837B2, “Aminopyrimidine compound as CDK2/4/6 triple inhibitor” (CISEN PHARMACEUTICAL CO., LTD, priority 2019, dated 2026)

How the values were obtained:
CDK4/CyclinD1 = biological target: T1, CDK4/CyclinD1 (Homo sapiens, UniProt P11802); experiment: CDK4/CyclinD1 kinase activity test (LANCE Ultra TR-FRET); format: biochemical; details: 350 μM ATP, 25° C., 120 minutes; read-out: Enzyme activity data (IC50) CDK4/cyclinD1
T1 construct: purchased Invitrogen
Method: Experimental materials: CDK4/CyclinD1 kinase was purchased from Invitrogen, reaction substrate LANCE Ultra ULight™-4E-BP-1 (Thr37146) Peptide and EU-ANTI-P-4EBP1 (THR37/46) were purchased from PerkinElmer. Nivo Multilabel Analyzer (PerkinElmer).
Experimental method: preparation of kinase buffer: The components of the buffer include: 50 mM of hydroxyethylpiperazine […] solution with pH 7.5, 1 mM of EDTA, 10 mM of magnesium chloride, 0.01% lauryl polyoxyethylene ether (Brij-35), 2 mM of enzyme dithiothreitol, kinase buffer dilution enzyme, substrate LANCE Ultra ULight™-4E-BP-1 (Thr37146) Peptide, adenosine triphosphate and inhibitor. […] The reaction system was continued at 25° C. for 120 minutes. After the reaction was complete, a mixture of 5 μL of EDTA and 2× LANCE™ Detection Buffer (1:1) was added to each well, and reacted at 25° C. for 5 minutes, after the reaction was complete, 5 μL of LANCE Ultra Eu-anti-P-4E-BP1(Thr37MS) (4 nM) was added to each well, and reacted at 25° C. for 60 minutes, the reaction signal was detected by Nivo instrument according to the principle of time-resolved fluorescence resonance energy transfer.
Table 1 provides the enzymatic inhibitory activities of the compounds of the present invention on CDK2/CyclinA2, CDK2/CyclinE1, CDK4/CyclinD1, CDK6/CyclinD1, CDK9/CyclinT1.

MDA-MB-468 cells = experiment: MDA-MB-468 cell activity test (CellTiter-Glo); format: cell-based
Method: Experimental materials: L15 medium, fetal bovine serum, penicillin/streptomycin antibiotics were purchased from Vicente. CellTiter-Glo (chemiluminescence detection reagent for cell viability) reagent was purchased from Promega. The MDA-MB-468 cell line was purchased from Cobioer Biosciences Co., Ltd. Nivo Multilabel Analyzer (PerkinElmer).
Experimental method: MDA-MB-468 cells were seeded in a white 96-well plate, 80 μL of cell suspension per well, which contained 1000 MDA-MB-468 cells. The cell plate was incubated overnight in a carbon dioxide incubator. The compounds to be tested were diluted 5-fold to the 9th concentration with a row gun, that is, from 10 mM to 25.6 nM, and a double-replicate well experiment was set up. 78 μL of medium was added to the middle plate, and then transferred 2 μL per well of the gradient diluted compound to the middle plate according to the corresponding position, mixed well and transferred 20 μL per well to the cell plate. The concentration of compound transferred to the cell plate ranged from 50 μM to 0.128 nM. The cell plate was incubated in a carbon dioxide incubator for 7 days. Another cell plate was prepared, and the signal value was read as the maximum value (Max value in the equation below) on the day of drug addition to participate in data analysis. 25 μL of chemiluminescence detection reagent for cell viability was added to each well of the cell plate, and incubated at room temperature for 10 minutes to stabilize the luminescence signal. A multi-label analyzer was used for reading.
Data analysis: Using the equation (Sample−Min)/(Max−Min)×100% to convert the original data into inhibition rate, the IC50 value can be obtained by curve fitting with four parameters (obtained by the mode of log(inhibitor) vs. response—Variable slope in GraphPad Prism).

[1] = Pharmacokinetic evaluation in female Balb/c mice; format: in vivo; details: mouse, plasma
Method: Healthy adult female Balb/c mice used in this study were purchased from Shanghai Lingchang Biotechnology Co., Ltd.
1.11 mg of the compound to be tested was accurately weighed, 109.8 μL of DMSO was added and vortexed for 1 minute, 109.8 μL of solutol was added and vortexed for 1 minute to obtain a clear solution, then 878 μL of water was added and vortexed for 1 minute to obtain the final solution with a final concentration of 1 mg/mL, the dosing vehicle was 10% DMSO+10% solutol+80% water. The solution in the intravenous injection group was filtered with a 2 μm filter before administration.
1.61 mg of the compound to be tested was accurately weighed, 796 μL of 1% HPMC was added, sonicated at 45° C. for 20 minutes, and stirred for 15 minutes to obtain a homogeneous suspension solution with a final concentration of 2 mg/mL. The dosing vehicle was 1% HPMC.
4 female Balb/c mice were divided into 2 groups according to 2 mice in each group. The first group was given 2 mg/kg of the compound to be tested by intravenous injection; the second group was given 10 mg/kg of the compound to be tested by gavage.
The blood was collected from two animals at each time point by continuous blood collection. 30 μL of whole blood was collected before administration and at 0.0833, 0.25, 0.5, 1, 2 (only gavage group), 4, 6, 8 (only intravenous group), and 24 hours after administration, respectively. The whole blood was placed in an anticoagulant tube, centrifuged at 3200 g for 10 minutes at 4° C., the plasma was prepared and stored at −80° C. Drug concentration in the plasma was determined by LC/MS-MS.

T1 sequence (P11802 whole entry): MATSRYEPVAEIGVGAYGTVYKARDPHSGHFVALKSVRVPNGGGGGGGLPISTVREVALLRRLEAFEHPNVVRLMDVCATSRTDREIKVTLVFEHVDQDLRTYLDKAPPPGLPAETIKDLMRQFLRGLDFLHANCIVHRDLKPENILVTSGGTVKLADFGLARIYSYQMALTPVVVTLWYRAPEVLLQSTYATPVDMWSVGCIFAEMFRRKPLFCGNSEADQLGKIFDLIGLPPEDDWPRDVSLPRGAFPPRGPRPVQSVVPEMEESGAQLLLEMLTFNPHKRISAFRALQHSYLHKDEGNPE
T1 sequence (P24385 whole entry partner): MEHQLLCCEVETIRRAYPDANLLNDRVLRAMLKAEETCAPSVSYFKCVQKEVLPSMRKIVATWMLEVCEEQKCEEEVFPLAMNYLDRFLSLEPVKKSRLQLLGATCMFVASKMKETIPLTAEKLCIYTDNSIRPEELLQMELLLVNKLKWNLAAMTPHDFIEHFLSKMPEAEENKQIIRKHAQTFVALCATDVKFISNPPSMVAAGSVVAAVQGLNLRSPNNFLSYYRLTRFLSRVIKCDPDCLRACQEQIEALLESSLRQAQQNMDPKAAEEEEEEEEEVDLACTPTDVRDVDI

For `C[C@@]1(O)CCC[C@H]1N1C(=O)CCc2cnc(NC3CCN(S(C)(=O)=O)CC3)nc21` [Compound 1A], the IC50 (CDK4/CyclinD1) was 5.9 nM, the IC50 (MDA-MB-468 cells; Homo sapiens, 168 h, MDA-MB-468 cells (Rb-negative), 7 days, read-out: Antiproliferative activity (IC50) MDA-MB-468) was 640 nM and the “Selectivity ratio(MDA-MB-468/HCC1806)” value (MDA-MB-468 cells; ratio of antiproliferative IC50, MDA-MB-468/HCC1806) was 4.1. It also gave a clearance ([1]; Intravenous Injection: 2 mg/kg, read-out: Clearance Rate Cl) of 36.9 mL/min/kg, a half-life ([1]; Intravenous Injection: 2 mg/kg, read-out: Half-Life T1/2 (converted)) of 16.8 min and a bioavailability ([1]; Oral Administration: 10 mg/kg, read-out: Oral Bioavailability F) of 31.4%. The AUC(0-t) ([1]; Oral Administration: 10 mg/kg, read-out: Oral Exposure AUC0-t) was 3.37 µM·h.
